Source: US20200093130A1, “APPLICATION OF TETRAHYDROBENZAZOLE IN PREPARATION OF AGRICULTURAL FUNGICIDE OR FUNGICIDE COMPOSITION AND PREPARATION METHOD THEREOF” (JIANGSU FREY AGROCHEMICALS CO., LTD, priority 2017, published 2020)
Read-outs that look alike come from different tables or passages of the source.

Key:
[1] = system: Fusarium oxysporum f. sp cucumerinum; assay: In vitro fungicidal activity, growth rate method (Cucumber fusarium wilt); assay type: cell-based; design: key: “—” means the activity is not obvious
[2] = assay type: cell-based, Acinomycete spiculata; details: Cucumber anthrax
Botrytis cinerea [3] = assay: In vitro fungicidal activity, growth rate method (Cucumber gray mold); assay type: cell-based; design: key: “—” means the activity is not obvious
Rhizoctonia solani = assay: In vitro fungicidal activity, growth rate method (Rice sheath blight); assay type: cell-based
Fusarium moniliforme = assay: In vitro fungicidal activity, growth rate method (Rice bakanae disease); assay type: cell-based; design: key: “—” means the activity is not obvious
[4] = system: Sinoe ampelina (de Bary) Shear; assay: In vitro fungicidal activity, growth rate method (Grape anthracnose); assay type: cell-based; design: key: “—” means the activity is not obvious
Mycosphaerella musicola = assay: In vitro fungicidal activity, growth rate method (Banana leaf spot disease); assay type: cell-based
Pyricularia grisea = assay type: cell-based; details: Rice blast
Sclerotinia sclerotiorum [5] = assay: In vitro fungicidal activity, growth rate method (Chili sclerotium); assay type: cell-based
Phytophthora = assay type: cell-based; details: Potato late blight
Erysiphe = assay: In vitro fungicidal activity, growth rate method (Strawberry powdery mildew); assay type: cell-based
Altemaria solani = assay: In vitro fungicidal activity, growth rate method (Tomato early blight); assay type: cell-based
Cercospora arachidicola = assay: In vitro fungicidal activity, growth rate method (Peanut brown spot); assay type: cell-based; design: key: “—” means the activity is not obvious
[6] = In vitro fungicidal activity, growth rate method (Colletotrichum capsici); assay type: cell-based, Acanthopteris fungi; details: plant disease Colletotrichum capsici
Alternaria kikuchiana = assay: In vitro fungicidal activity, growth rate method (Pear black spot); assay type: cell-based
[7] = system: Sphaerotheca fuliginea (Schlecht) Poll.; assay: In vitro fungicidal activity, growth rate method (Cucumber powdery mildew); assay type: cell-based
[8] = system: Alternaria alternata (Fr.) Keissl; assay: In vitro fungicidal activity, growth rate method (Apple altermaria leaf spot); assay type: cell-based
Botryosphaeria = assay: In vitro fungicidal activity, growth rate method (Apple ring spot); assay type: cell-based; design: key: “—” means the activity is not obvious
[9] = system: Helminthosporium carposaprum; assay: In vitro fungicidal activity, growth rate method (Corn spot); assay type: cell-based
Sclerotinia sclerotiorum [10] = assay: In vitro fungicidal activity, growth rate method (Cucumber sclerotinia rot); assay type: cell-based
Botrytis cinerea [11] = assay: In vitro fungicidal activity, growth rate method (Strawberry grey mold); assay type: cell-based; design: key: “—” means the activity is not obvious

CC1COC(Cn2cnnc2)(c2ccc(Oc3ccc(Cl)cc3)cc2Cl)O1 (stereo not drawn) [Formula I, 4-((-(2-chloro-4-(4-chlorophenoxy)phenyl)-4-methyl-1,3-dioxapentan-2-yl)methyl)-4H-1,2,4-triazole]
Fungicidal activity (inhibition ratio %) ([1]; 1 μg/mL): — | Fungicidal activity (inhibition ratio %) ([1]; 5 μg/mL): — | Fungicidal activity (inhibition ratio %) ([1]; 10 μg/mL): 18.32% | Fungicidal activity (inhibition ratio %) ([1]; 15 μg/mL): 31.77% | Fungicidal activity (inhibition ratio %) ([1]; 20 μg/mL): 48.18% | Fungicidal activity (inhibition ratio %) ([2]; 1 μg/mL): 37.85% | Fungicidal activity (inhibition ratio %) ([2]; 5 μg/mL): 41.18% | Fungicidal activity (inhibition ratio %) ([2]; 10 μg/mL): 53.51% | Fungicidal activity (inhibition ratio %) ([2]; 15 μg/mL): 58.17% | Fungicidal activity (inhibition ratio %) ([2]; 20 μg/mL): 65.73% | Fungicidal activity (inhibition ratio %) (Botrytis cinerea [3]; 1 μg/mL): — | Fungicidal activity (inhibition ratio %) (Botrytis cinerea [3]; 5 μg/mL): — | Fungicidal activity (inhibition ratio %) (Botrytis cinerea [3]; 10 μg/mL): 5.10% | Fungicidal activity (inhibition ratio %) (Botrytis cinerea [3]; 15 μg/mL): 9.98% | Fungicidal activity (inhibition ratio %) (Botrytis cinerea [3]; 20 μg/mL): 21.26% | Fungicidal activity (inhibition ratio %) (Rhizoctonia solani; 1 μg/mL): 37.80% | Fungicidal activity (inhibition ratio %) (Rhizoctonia solani; 5 μg/mL): 52.79% | Fungicidal activity (inhibition ratio %) (Rhizoctonia solani; 10 μg/mL): 68.48% | Fungicidal activity (inhibition ratio %) (Rhizoctonia solani; 15 μg/mL): 72.82% | Fungicidal activity (inhibition ratio %) (Rhizoctonia solani; 20 μg/mL): 82.56% | Fungicidal activity (inhibition ratio %) (Fusarium moniliforme; 1 μg/mL): — | Fungicidal activity (inhibition ratio %) (Fusarium moniliforme; 5 μg/mL): 22.26% | Fungicidal activity (inhibition ratio %) (Fusarium moniliforme; 10 μg/mL): 36.71% | Fungicidal activity (inhibition ratio %) (Fusarium moniliforme; 15 μg/mL): 45.62% | Fungicidal activity (inhibition ratio %) (Fusarium moniliforme; 20 μg/mL): 61.79% | Fungicidal activity (inhibition ratio %) ([4]; 1 μg/mL): — | Fungicidal activity (inhibition ratio %) ([4]; 5 μg/mL): 25.12% | Fungicidal activity (inhibition ratio %) ([4]; 10 μg/mL): 42.04% | Fungicidal activity (inhibition ratio %) ([4]; 15 μg/mL): 52.93% | Fungicidal activity (inhibition ratio %) ([4]; 20 μg/mL): 65.18% | Fungicidal activity (inhibition ratio %) (Mycosphaerella musicola; 1 μg/mL): 25.26% | Fungicidal activity (inhibition ratio %) (Mycosphaerella musicola; 5 μg/mL): 31.30% | Fungicidal activity (inhibition ratio %) (Mycosphaerella musicola; 10 μg/mL): 43.35% | Fungicidal activity (inhibition ratio %) (Mycosphaerella musicola; 15 μg/mL): 52.11% | Fungicidal activity (inhibition ratio %) (Mycosphaerella musicola; 20 μg/mL): 66.76% | Fungicidal activity (inhibition ratio %) (Pyricularia grisea; 1 μg/mL): 11.94% | Fungicidal activity (inhibition ratio %) (Pyricularia grisea; 5 μg/mL): 25.37% | Fungicidal activity (inhibition ratio %) (Pyricularia grisea; 10 μg/mL): 44.73% | Fungicidal activity (inhibition ratio %) (Pyricularia grisea; 15 μg/mL): 58.23% | Fungicidal activity (inhibition ratio %) (Pyricularia grisea; 20 μg/mL): 67.59% | Fungicidal activity (inhibition ratio %) (Sclerotinia sclerotiorum [5]; 1 μg/mL): 12.81% | Fungicidal activity (inhibition ratio %) (Sclerotinia sclerotiorum [5]; 5 μg/mL): 17.96% | Fungicidal activity (inhibition ratio %) (Sclerotinia sclerotiorum [5]; 10 μg/mL): 25.35% | Fungicidal activity (inhibition ratio %) (Sclerotinia sclerotiorum [5]; 15 μg/mL): 39.34% | Fungicidal activity (inhibition ratio %) (Sclerotinia sclerotiorum [5]; 20 μg/mL): 55.18% | Fungicidal activity (inhibition ratio %) (Phytophthora; 1 μg/mL): 27.03% | Fungicidal activity (inhibition ratio %) (Phytophthora; 5 μg/mL): 31.96% | Fungicidal activity (inhibition ratio %) (Phytophthora; 10 μg/mL): 43.44% | Fungicidal activity (inhibition ratio %) (Phytophthora; 15 μg/mL): 65.08% | Fungicidal activity (inhibition ratio %) (Phytophthora; 20 μg/mL): 73.63% | Fungicidal activity (inhibition ratio %) (Erysiphe; 1 μg/mL): 33.24% | Fungicidal activity (inhibition ratio %) (Erysiphe; 5 μg/mL): 54.62% | Fungicidal activity (inhibition ratio %) (Erysiphe; 10 μg/mL): 67.26% | Fungicidal activity (inhibition ratio %) (Erysiphe; 15 μg/mL): 76.09% | Fungicidal activity (inhibition ratio %) (Erysiphe; 20 μg/mL): 79.02% | Fungicidal activity (inhibition ratio %) (Altemaria solani; 1 μg/mL): 13.20% | Fungicidal activity (inhibition ratio %) (Altemaria solani; 5 μg/mL): 52.88% | Fungicidal activity (inhibition ratio %) (Altemaria solani; 10 μg/mL): 67.29% | Fungicidal activity (inhibition ratio %) (Altemaria solani; 15 μg/mL): 77.88% | Fungicidal activity (inhibition ratio %) (Altemaria solani; 20 μg/mL): 85.86% | Fungicidal activity (inhibition ratio %) (Cercospora arachidicola; 1 μg/mL): — | Fungicidal activity (inhibition ratio %) (Cercospora arachidicola; 5 μg/mL): 19.71% | Fungicidal activity (inhibition ratio %) (Cercospora arachidicola; 10 μg/mL): 31.25% | Fungicidal activity (inhibition ratio %) (Cercospora arachidicola; 15 μg/mL): 39.48% | Fungicidal activity (inhibition ratio %) (Cercospora arachidicola; 20 μg/mL): 56.68% | Fungicidal activity (inhibition ratio %) ([6]; 1 μg/mL): 28.70% | Fungicidal activity (inhibition ratio %) ([6]; 5 μg/mL): 47.29% | Fungicidal activity (inhibition ratio %) ([6]; 10 μg/mL): 53.59% | Fungicidal activity (inhibition ratio %) ([6]; 15 μg/mL): 68.32% | Fungicidal activity (inhibition ratio %) ([6]; 20 μg/mL): 78.96% | Fungicidal activity (inhibition ratio %) (Alternaria kikuchiana; 1 μg/mL): 29.98% | Fungicidal activity (inhibition ratio %) (Alternaria kikuchiana; 5 μg/mL): 35.76% | Fungicidal activity (inhibition ratio %) (Alternaria kikuchiana; 10 μg/mL): 46.61% | Fungicidal activity (inhibition ratio %) (Alternaria kikuchiana; 15 μg/mL): 59.78% | Fungicidal activity (inhibition ratio %) (Alternaria kikuchiana; 20 μg/mL): 67.44% | Fungicidal activity (inhibition ratio %) ([7]; 1 μg/mL): 38.70% | Fungicidal activity (inhibition ratio %) ([7]; 5 μg/mL): 57.29% | Fungicidal activity (inhibition ratio %) ([7]; 10 μg/mL): 63.59% | Fungicidal activity (inhibition ratio %) ([7]; 15 μg/mL): 78.32% | Fungicidal activity (inhibition ratio %) ([7]; 20 μg/mL): 88.96% | Fungicidal activity (inhibition ratio %) ([8]; 1 μg/mL): 26.94% | Fungicidal activity (inhibition ratio %) ([8]; 5 μg/mL): 34.48% | Fungicidal activity (inhibition ratio %) ([8]; 10 μg/mL): 52.31% | Fungicidal activity (inhibition ratio %) ([8]; 15 μg/mL): 66.71% | Fungicidal activity (inhibition ratio %) ([8]; 20 μg/mL): 74.65% | Fungicidal activity (inhibition ratio %) (Botryosphaeria; 1 μg/mL): — | Fungicidal activity (inhibition ratio %) (Botryosphaeria; 5 μg/mL): 41.28% | Fungicidal activity (inhibition ratio %) (Botryosphaeria; 10 μg/mL): 53.56% | Fungicidal activity (inhibition ratio %) (Botryosphaeria; 15 μg/mL): 68.76% | Fungicidal activity (inhibition ratio %) (Botryosphaeria; 20 μg/mL): 73.46% | Fungicidal activity (inhibition ratio %) ([9]; 1 μg/mL): 8.92% | Fungicidal activity (inhibition ratio %) ([9]; 5 μg/mL): 22.44% | Fungicidal activity (inhibition ratio %) ([9]; 10 μg/mL): 33.45% | Fungicidal activity (inhibition ratio %) ([9]; 15 μg/mL): 44.46% | Fungicidal activity (inhibition ratio %) ([9]; 20 μg/mL): 53.22% | Fungicidal activity (inhibition ratio %) (Sclerotinia sclerotiorum [10]; 1 μg/mL): 12.55% | Fungicidal activity (inhibition ratio %) (Sclerotinia sclerotiorum [10]; 5 μg/mL): 34.23% | Fungicidal activity (inhibition ratio %) (Sclerotinia sclerotiorum [10]; 10 μg/mL): 51.21% | Fungicidal activity (inhibition ratio %) (Sclerotinia sclerotiorum [10]; 15 μg/mL): 64.29% | Fungicidal activity (inhibition ratio %) (Sclerotinia sclerotiorum [10]; 20 μg/mL): 71.84% | Fungicidal activity (inhibition ratio %) (Botrytis cinerea [11]; 1 μg/mL): — | Fungicidal activity (inhibition ratio %) (Botrytis cinerea [11]; 5 μg/mL): — | Fungicidal activity (inhibition ratio %) (Botrytis cinerea [11]; 10 μg/mL): 7.12% | Fungicidal activity (inhibition ratio %) (Botrytis cinerea [11]; 15 μg/mL): 13.46% | Fungicidal activity (inhibition ratio %) (Botrytis cinerea [11]; 20 μg/mL): 29.22%
